Experimental findings from article PMC6468809, “Structural Analysis of the 42 kDa Parvulin of Trypanosoma brucei” (Biomolecules, 2019) are described below.

*1 amine or outer side, *2 acyl side, *3 side chain or, on linkers, in order; H or OH if unused. Where a SMILES comes first, the peptide text is derived from it. [ ]: non-standard residue; d: D form. pT = C[C@@H](OP(=O)(O)O)[C@H](N)C(=O)O; Suc = O=C(CCC(=O)[*:2])[*:1]

One experiment has as its target TbPar42 NterFHA (1-177) (Trypanosoma brucei brucei, UniProt Q57XM6). Briefly: biochemical.
Another experiment relates to hPin1. In words: EXSY experiment, cis/trans isomerisation of peptide. The class given is biochemical, human. Conditions: 2.4 mM peptide, 50 μM hPin-PPIase, 25 mM potassium phosphate pH 6.26, 100% D2O, 27 °C, mixing time 400 ms.
A further experiment concerns TbPar42-PPIase. The description is as above. Type of experiment: biochemical, Trypanosoma brucei. Conditions: 2.4 mM peptide, 50 μM TbPar42-PPIase, 25 mM potassium phosphate pH 6.26, 100% D2O, 27 °C, mixing time 400 ms.
A further experiment deals with TbPar42-PPIase (264-383) (Trypanosoma brucei brucei, UniProt Q57XM6). In words: biochemical.
Sequence of TbPar42-PPIase (264-383) (Q57XM6 264-383): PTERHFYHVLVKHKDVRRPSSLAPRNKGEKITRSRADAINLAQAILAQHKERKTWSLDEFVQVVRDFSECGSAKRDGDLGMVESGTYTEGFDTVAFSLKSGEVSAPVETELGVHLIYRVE

Sequence of TbPar42 NterFHA (1-177) (Q57XM6 1-177): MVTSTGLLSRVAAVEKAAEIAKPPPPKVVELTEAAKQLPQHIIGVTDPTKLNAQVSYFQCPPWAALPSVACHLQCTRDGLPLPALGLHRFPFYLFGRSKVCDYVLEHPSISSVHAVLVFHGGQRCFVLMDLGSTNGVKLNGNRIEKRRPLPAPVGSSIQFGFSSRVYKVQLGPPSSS
Method for TbPar42 NterFHA (1-177): After each step a ^1H-^15N-HSQC or SOFAST spectrum was recorded on a 700 MHz Ultrashield NMR spectrometer at 27 °C. The spectra were analyzed with the CcpNmr Analysis software, and the chemical shift perturbations were calculated with following equation [22]: Δδtotal=(ΔδH)^2+(0.154·ΔδN)²
Residues with chemical shifts ≥0.015 ppm (PPIase) or ≥0.04 ppm (NterFHA) were represented on the related protein structure using PyMOL [23]. For titrations of the peptide Ala-Glu-Ala-pThr-Glu-Ala-Xaa (Xaa representing Asp, Ile, Val, Ser, or Gln) to the NterFHA domain, the protein concentration was 250 µM and the peptides were titrated to a final concentration of 8 mM.

For the compound `C[C@H](NC(=O)[C@@H]1CCCN1C(=O)[C@@H](NC(=O)[C@H](C)NC(=O)CCC(=O)O)[C@@H](C)OP(=O)(O)O)C(N)=O` [Suc-Ala-pThr-Pro-Ala-NH2] (Suc-A[pT]PA-NH2), the Kd on TbPar42 NterFHA (1-177) is approximately 4 mM; on TbPar42-PPIase (264-383) it was approximately 10 mM. Moreover, in the experiment on hPin1, the “cis/trans exchange peaks of the peptide (EXSY)” value is reported as “exchange peaks generated exclusively in B”. Further, in the experiment on TbPar42-PPIase, the “isomerase activity on the peptide” value was “no isomerase activity could be detected”.

As a reminder, the Kd is the constant that tells how readily two partners part at equilibrium. High values mean weaker binding, low ones tighter binding.
